# In US7338956B2, “Acylamino-substituted heteroaromatic compounds and their use as pharmaceuticals” (Sanofi-Aventis Deutschland GmbH, priority 2002, dated 2008):
# System: eNOS promoter
# Assay: Determination of activation of eNOS transcription (eNOS promoter firefly luciferase reporter gene assay)
# Assay type: cell-based
# Settings: human endothelial cell line stable transfected with eNOS promoter-luciferase construct; 18 h incubation; EC50 determined graphically; read-out: EC50 values of transcription induction ratio
# Experimental: Activation of eNOS transcription was determined as described in detail in Li et al., “Activation of protein kinase C alpha and/or epsilon enhances transcription of the human endothelial nitric oxide synthase gene”, Mol. Pharmacol. 53 (1998) 630 (the content of which is incorporated herein by reference). Briefly, a 3.5 kB long fragment 5′ of the starting codon of the eNOS gene was cloned, sequenced and cloned in firefly luciferase expression plasmids to monitor activation of the eNOS promoter by reporter gene activity. A human endothelial cell line stable transfected and expressing this promoter-reporter construct was used for compound testing. Cells were incubated for 18 h with compounds.
# All compounds were dissolved in sterile dimethyl sulfoxide (DMSO). A final concentration of 0.5% DMSO in complete medium was allowed. Induction of reporter gene expression in these cells was measured using a standard luciferase assay system (Promega, Cat. No E150) according to the manufacturer's instructions. Luciferase induction in cells incubated with compounds were compared to those incubated with solvent alone. The ratio of both activities (transcription induction ratio, TIR) was plotted as a function of compound concentration. […] EC50 values of transcription induction ratios as a function of compound concentration were determined graphically.
row,Compound,EC50
1,"O=C(Nc1nc2cc(Cl)ccc2s1)c1ccc(F)cc1 [Example 123, N-(5-Chlorobenzothiazol-2-yl)-4-fluorobenzamide]",12 µM
2,"O=C(Nc1nc2cccc(Cl)c2s1)c1ccc(F)cc1 [Example 124, N-(7-Chlorobenzothiazol-2-yl)-4-fluorobenzamide]",< 0.1 µM
